Test results from US20240376091A1, “THIADIAZOLEAMIDE DERIVATIVES AND THEIR APPLICATIONS” (ZHEJIANG UNIVERSITY, priority 2021, published 2024).

biological target: T1, AR (Homo sapiens, UniProt P10275, T878A); experiment: AR transcriptional activity, LNCaP-ARR2PB-eGFP reporter cells; type: cell-based; conditions: read-out: IC50 AR transcriptional activities
T1 construct: into the androgen-dependent PCa cells (LNCaP); endogenous in cells; host or cells: LNCaP-ARR2PB-eGFP
T1 sequence (P10275 1-920 T878A): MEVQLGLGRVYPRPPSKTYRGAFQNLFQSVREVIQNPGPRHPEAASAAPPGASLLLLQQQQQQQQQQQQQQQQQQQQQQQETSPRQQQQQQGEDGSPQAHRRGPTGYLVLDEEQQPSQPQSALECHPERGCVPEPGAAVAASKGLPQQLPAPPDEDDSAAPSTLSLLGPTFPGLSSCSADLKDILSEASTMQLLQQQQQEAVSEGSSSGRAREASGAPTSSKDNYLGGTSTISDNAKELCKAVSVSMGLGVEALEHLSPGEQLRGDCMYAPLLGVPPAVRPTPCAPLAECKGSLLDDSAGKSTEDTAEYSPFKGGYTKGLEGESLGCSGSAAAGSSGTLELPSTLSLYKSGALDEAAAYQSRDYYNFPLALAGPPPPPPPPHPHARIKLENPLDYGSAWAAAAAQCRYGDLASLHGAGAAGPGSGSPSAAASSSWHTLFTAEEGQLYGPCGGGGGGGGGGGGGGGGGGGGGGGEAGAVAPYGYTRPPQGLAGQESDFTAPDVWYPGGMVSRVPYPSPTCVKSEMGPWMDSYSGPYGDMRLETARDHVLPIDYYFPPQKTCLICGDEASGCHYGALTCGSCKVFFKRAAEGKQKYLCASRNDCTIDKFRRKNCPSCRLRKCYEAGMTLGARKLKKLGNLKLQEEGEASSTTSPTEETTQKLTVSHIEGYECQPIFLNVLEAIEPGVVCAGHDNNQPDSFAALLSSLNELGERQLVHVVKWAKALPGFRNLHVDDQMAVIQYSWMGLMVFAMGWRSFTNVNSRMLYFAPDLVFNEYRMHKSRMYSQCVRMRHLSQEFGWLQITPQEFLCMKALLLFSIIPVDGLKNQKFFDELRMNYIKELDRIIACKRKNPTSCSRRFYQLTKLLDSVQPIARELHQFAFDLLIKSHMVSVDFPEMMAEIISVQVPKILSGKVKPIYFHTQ
Source text: Detection principles: We conducted a stable transfection of promoter ARR2PB known for its strong AR responsiveness, into the androgen-dependent PCa cells (LNCaP). The expression of enhanced green fluorescent protein (eGFP) is depending on the degree of activation of AR. Therefore, LNCaP-ARR2PB-eGFP cell line could quantitatively determine the AR antagonistic activities of the compounds by evaluating the expression of eGFP.

Row | Structure (SMILES) | IC50 [µM]
1 | CC(O)Cc1nsc(NC(=O)c2cc(-c3cccc(C(F)(F)F)c3)oc2C(F)(F)F)n1 (stereo not shown) [Compound E-12, N-(3-(2-hydroxypropyl)-1,2,4-thiadiazol-5-yl)-2-(trifluoromethyl)-5-(3-(trifluoromethyl)phenyl)furan-3-carboxamide] | 1.57
2 | CC(O)(Cc1nsc(NC(=O)c2cc(-c3cccc(C(F)(F)F)c3)oc2C(F)(F)F)n1)C(F)(F)F (stereo not shown) [Compound E-17, N-(3-(3,3,3-trifluoro-2-hydroxy-2-methylpropyl)-1,2,4-thiadiazol-5-yl)-2-(trifluoromethyl)-5-(3-(trifluoromethyl)phenyl)furan-3-carboxamide] | 0.79
3 | CC(Cc1nsc(NC(=O)c2cc(-c3cccc(C(F)(F)F)c3)oc2C(F)(F)F)n1)=C(F)F [Compound E-22, N-(3-(3,3-difluoro-2-methylallyl)-1,2,4-thiadiazol-5-yl)-2-(trifluoromethyl)-5-(3-(trifluoromethyl)phenyl) furan-3-carboxamide] | 1.46
4 | CC(F)(F)Cc1nsc(NC(=O)c2cc(-c3cccc(C(F)(F)F)c3)oc2C(F)(F)F)n1 [Compound E-27, N-(3-(2,2-difluoropropyl)-1,2,4-thiadiazol-5-yl)-2-(trifluoromethyl)-5-(3-(trifluoromethyl)phenyl) fura n-3-carboxamide] | 0.95
5 | O=C(Nc1nc(CCl)ns1)c1cc(-c2cccc(C(F)(F)F)c2)oc1C(F)(F)F [Compound E-32, N-(3-(chloromethyl)-1,2,4-thiadiazol-5-yl)-2-(trifluoromethyl)-5-(3-(trifluoromethyl)phenyl)furan-3-carboxamide] | 1.32
6 | O=C(Nc1nc(CN2CCCC2)ns1)c1cc(-c2cccc(OC(F)(F)F)c2)oc1C(F)(F)F [Compound E-40, N-(3-(pyrrolidin-1-ylmethyl)-1,2,4-thiadiazol-5-yl)-5-(3-(trifluoromethoxy)phenyl)-2-(trifluoromethyl)furan-3-carboxamide] | 2.92
7 | O=C(Nc1nc(CN2CCCCC2)ns1)c1cc(-c2cccc(OC(F)F)c2)oc1C(F)(F)F [Compound E-41, 5-(3-(Difluoromethoxy)phenyl)-N-(3-(piperidin-1-ylmethyl)-1,2,4-thiadiazol-5-yl)-2-(trifluoromethyl)furan-3-carboxamide] | 0.89
8 | CC(=O)Cc1nsc(NC(=O)c2cc(-c3cccc(C(F)(F)F)c3)c(C)o2)n1 [Compound F-1, 5-Methyl-N-(3-(2-oxopropyl)-1,2,4-thiadiazol-5-yl)-4-(3-(trifluoromethyl)phenyl)furan-2-carboxamide] | 28.1
9 | CC(=O)Cc1nsc(NC(=O)c2cc(-c3cccc(C#N)c3)c(C)o2)n1 [Compound F-2, 4-(3-Cyanophenyl)-5-methyl-N-(3-(2-oxopropyl)-1,2,4-thiadiazol-5-yl)furan-2-carboxamide] | 34.3
10 | COc1cccc(-c2cc(C(=O)Nc3nc(CC(C)=O)ns3)oc2C)c1 [Compound F-3, 4-(3-Methoxyphenyl)-5-methyl-N-(3-(2-oxopropyl)-1,2,4-thiadiazol-5-yl)furan-2-carboxamide] | 22.4
11 | CC(=O)Cc1nsc(NC(=O)c2cc(-c3cccc(OC(F)(F)F)c3)c(C)o2)n1 [Compound F-4, 5-Methyl-N-(3-(2-oxopropyl)-1,2,4-thiadiazol-5-yl)-4-(3-(trifluoromethoxy)phenyl)furan-2-carboxamide] | 35.7
12 | CC(=O)Cc1nsc(NC(=O)c2cc(-c3cccc(OC(F)F)c3)c(C)o2)n1 [Compound F-5, 4-(3-(Difluoromethoxy)phenyl)-5-methyl-N-(3-(2-oxopropyl)-1,2,4-thiadiazol-5-yl)furan-2-carboxamide] | 12.6
13 | Cc1oc(C(=O)Nc2nc(CC(C)N3CCCC3)ns2)cc1-c1cccc(C(F)(F)F)c1 (stereo not shown) [Compound F-6] | 17.9
14 | Cc1oc(C(=O)Nc2nc(CC(C)N3CCCCC3)ns2)cc1-c1cccc(C#N)c1 (stereo not shown) [Compound F-7, 4-(3-Cyanophenyl)-5-methyl-N-(3-(2-(piperidin-1-yl)propyl)-1,2,4-thiadiazol-5-yl)furan-2-carboxamide] | 14
15 | Cc1oc(C(=O)Nc2nc(CC(C)N3CCN(C)CC3)ns2)cc1-c1cccc(OC(F)F)c1 (stereo not shown) [Compound F-10, 4-(3-(Difluoromethoxy)phenyl)-5-methyl-N-(3-(2-(4-methylpiperazin-1-yl)propyl)-1,2,4-thiadiazol-5-yl)furan-2-carboxamide] | 27.1
16 | Cc1oc(C(=O)Nc2nc(CC(C)O)ns2)cc1-c1cccc(C(F)(F)F)c1 (stereo not shown) [Compound F-11, N-(3-(2-hydroxypropyl)-1,2,4-thiadiazol-5-yl)-5-methyl-4-(3-(trifluoromethyl)phenyl) furan-2-carboxamide] | 22.3
17 | Cc1oc(C(=O)Nc2nc(CC(C)(O)C(F)(F)F)ns2)cc1-c1cccc(C(F)(F)F)c1 (stereo not shown) [Compound F-13, 5-Methyl-N-(3-(3,3,3-trifluoro-2-hydroxy-2-methylpropyl)-1,2,4-thiadiazol-5-yl)-4-(3-(tri-fluoromethyl)phenyl)furan-2-carboxamide] | 31.5
18 | COc1cccc(-c2cc(C(=O)Nc3nc(CC(C)=C(F)F)ns3)oc2C)c1 [Compound F-15, N-(3-(3,3-difluoro-2-methylallyl)-1,2,4-thiadiazol-5-yl)-4-(3-methoxyphenyl)-5-methyl-furan-2-carboxamide] | 35.9
19 | Cc1oc(C(=O)Nc2nc(CC(C)(F)F)ns2)cc1-c1cccc(OC(F)(F)F)c1 [Compound F-17, N-(3-(2,2-difluoropropyl)-1,2,4-thiadiazol-5-yl)-5-methyl-4-(3-(trifluoromethoxy)phenyl)furan-2-carboxamide] | 25

Results, then the compound that gave them:

Row | IC50 [µM] | Structure (SMILES)
20 | 3.38 | CC(Cc1nsc(NC(=O)c2cc(-c3cccc(C(F)(F)F)c3)oc2C(F)(F)F)n1)N1CCCC1 (stereo not shown) [Compound E-6, N-(3-(2-(pyrrolidin-1-yl)propyl)-1,2,4-thiadiazol-5-yl)-2-(trifluoromethyl)-5-(3-(trifluoromethyl)phenyl) furan-3-carboxamide]
21 | 7.54 | CC(Cc1nsc(NC(=O)c2cc(-c3cccc(C#N)c3)oc2C(F)(F)F)n1)N1CCOCC1 (stereo not shown) [Compound E-8, 5-(3-Cyanophenyl)-N-(3-(2-morpholinopropyl)-1,2,4-thiadiazol-5-yl)-2-(trifluoromethyl)furan-3-carboxamide]
22 | 5.29 | COc1cccc(-c2cc(C(=O)Nc3nc(CC(C)N4CCCCC4)ns3)c(C(F)(F)F)o2)c1 (stereo not shown) [Compound E-9, 5-(3-Methoxyphenyl)-N-(3-(2-(piperidin-1-yl)propyl)-1,2,4-thiadiazol-5-yl)-2-(trifluoro-methyl)furan-3-carboxamide]
23 | 0.99 | CC(Cc1nsc(NC(=O)c2cc(-c3cccc(OC(F)(F)F)c3)oc2C(F)(F)F)n1)N1CCOCC1 (stereo not shown) [Compound E-10, N-(3-(2-morpholinopropyl)-1,2,4-thiadiazol-5-yl)-5-(3-(trifluoromethoxy)phenyl)-2-(trifluoromethyl)furan-3-carboxamide]
24 | 0.97 | CC(Cc1nsc(NC(=O)c2cc(-c3cccc(OC(F)F)c3)oc2C(F)(F)F)n1)N1CCN(C)CC1 (stereo not shown) [Compound E-11, 5-(3-(Difluoromethoxy)phenyl)-N-(3-(2-(4-methylpiperazin-1-yl)propyl)-1,2,4-thiadiazol-5-yl)-2-(trifluoromethyl)furan-3-carboxamide]
25 | 1.45 | CN1CCN(Cc2nsc(NC(=O)c3cc(-c4cccc(C#N)c4)oc3C(F)(F)F)n2)CC1 [Compound E-38, 5-(3-Cyanophenyl)-N-(3-((4-methylpiperazin-1-yl)methyl)-1,2,4-thiadiazol-5-yl)-2-(trifluoromethyl)furan-3-carboxamide]
26 | 2.19 | COc1cccc(-c2cc(C(=O)Nc3nc(CN4CCOCC4)ns3)c(C(F)(F)F)o2)c1 [Compound E-39, 5-(3-Methoxyphenyl)-N-(3-(morpholinomethyl)-1,2,4-thiadiazol-5-yl)-2-(trifluoromethyl)furan-3-carboxamide]
27 | 17.6 | COc1cccc(-c2cc(C(=O)Nc3nc(CC(C)N4CCOCC4)ns3)oc2C)c1 (stereo not shown) [Compound F-8, 4-(3-Methoxyphenyl)-5-methyl-N-(3-(2-morpholinopropyl)-1,2,4-thiadiazol-5-yl)furan-2-carboxamide]
28 | 23.5 | Cc1oc(C(=O)Nc2nc(CC(C)N3CCOCC3)ns2)cc1-c1cccc(OC(F)(F)F)c1 (stereo not shown) [Compound F-9, 5-Methyl-N-(3-(2-morpholinopropyl)-1,2,4-thiadiazol-5-yl)-4-(3-(trifluoromethoxy)phenyl)furan-2-carboxamide]
